Test results taken from patent US10723741B1, “DNA polymerase IIIC inhibitors and use thereof” (Acurx Pharmaceuticals, LLC, priority 2018, dated 2020).

These molecules were tested against T1, Staphylococcus aureus DNA pol IIIC enzyme (Staphylococcus aureus, UniProt Q5HGG7) (assay: Ki assay for DNA polymerase IIIC (3H-dTTP incorporation, truncated assay)). Conditions: Ki = concentration giving 50% inhibition of control activity; range stated for the listed group; read-out: Ki against Staphylococcus aureus DNA pol IIIC enzyme.
T1 construct: The recombinant protein had full length of original protein and a His tag, a thrombin site and a T7 tag at N-terminus; His tag (N); thrombin site (N); T7 tag (N); made in house; host or cells: E. coli BL21 (DE3), plasmid pET-28a(+)
T1 sequence (Q5HGG7 1-1438): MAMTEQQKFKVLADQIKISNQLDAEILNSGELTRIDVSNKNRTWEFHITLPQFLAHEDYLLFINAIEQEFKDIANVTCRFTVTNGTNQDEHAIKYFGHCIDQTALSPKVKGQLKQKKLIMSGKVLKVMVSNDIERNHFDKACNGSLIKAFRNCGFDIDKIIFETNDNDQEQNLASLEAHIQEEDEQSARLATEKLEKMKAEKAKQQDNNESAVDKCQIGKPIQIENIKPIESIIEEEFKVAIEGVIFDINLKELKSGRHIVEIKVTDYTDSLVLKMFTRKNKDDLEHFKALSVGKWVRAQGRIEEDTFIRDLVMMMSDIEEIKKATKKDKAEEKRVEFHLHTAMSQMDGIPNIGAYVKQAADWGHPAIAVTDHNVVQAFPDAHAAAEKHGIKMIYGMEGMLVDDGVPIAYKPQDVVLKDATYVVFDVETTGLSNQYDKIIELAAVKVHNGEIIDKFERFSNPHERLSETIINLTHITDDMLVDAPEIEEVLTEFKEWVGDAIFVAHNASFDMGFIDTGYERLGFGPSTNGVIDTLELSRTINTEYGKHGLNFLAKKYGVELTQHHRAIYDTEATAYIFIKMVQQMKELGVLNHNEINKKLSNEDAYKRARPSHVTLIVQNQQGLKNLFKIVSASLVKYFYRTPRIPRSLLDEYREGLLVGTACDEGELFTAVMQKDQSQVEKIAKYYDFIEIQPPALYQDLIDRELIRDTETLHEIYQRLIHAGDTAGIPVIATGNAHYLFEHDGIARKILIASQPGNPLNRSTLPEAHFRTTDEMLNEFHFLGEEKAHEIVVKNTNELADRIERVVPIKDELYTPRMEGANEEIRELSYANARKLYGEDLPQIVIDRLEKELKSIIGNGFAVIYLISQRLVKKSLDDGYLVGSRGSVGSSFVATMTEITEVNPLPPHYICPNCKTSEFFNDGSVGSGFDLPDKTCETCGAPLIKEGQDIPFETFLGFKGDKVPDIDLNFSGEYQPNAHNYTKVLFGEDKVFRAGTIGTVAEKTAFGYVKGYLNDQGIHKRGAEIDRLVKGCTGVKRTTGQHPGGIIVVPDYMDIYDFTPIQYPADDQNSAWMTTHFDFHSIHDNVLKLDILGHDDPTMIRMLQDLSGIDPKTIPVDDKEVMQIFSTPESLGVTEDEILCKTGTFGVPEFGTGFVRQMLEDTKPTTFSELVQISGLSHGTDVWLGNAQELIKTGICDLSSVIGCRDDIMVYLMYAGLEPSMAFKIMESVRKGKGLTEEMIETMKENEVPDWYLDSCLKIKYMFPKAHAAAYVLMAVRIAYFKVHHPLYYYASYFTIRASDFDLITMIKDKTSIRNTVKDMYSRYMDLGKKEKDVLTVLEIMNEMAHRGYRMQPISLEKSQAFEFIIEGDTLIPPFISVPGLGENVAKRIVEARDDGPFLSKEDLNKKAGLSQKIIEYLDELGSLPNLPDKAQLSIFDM
Type: biochemical
From the text: The ability of a compound to inhibit the activity of DNA pol IIIC enzyme can be tested by using a DNA polymerase assay as described, for example, in Barnes and Brown, Nucl. Acids Res. 1979, 6, 1203-1219; Trantolo et al., J. Med. Chem. 1986, 29, 676-681; Mills et al., J. Bacterial. 1977, 132, 641-649; Low et al., J. Biol. Chem. 1976, 251, 1311-1325. This rapid screening method can use natural or recombinant DNA pol III enzymes in a standard DNA polymerase activity assay. By including a test compound in a side-by-side assay with a control, the effect of the test compound on polymerase activity can be assessed. Compounds with an appropriate level (Ki<[…]) of inhibition of the natural or recombinant bacterial DNA polymerase III are preferred.
The DNA polymerase IIIC coding genes were amplified from genomic DNA. The primers were designed so the 5′-terminal and 3′-terminal contain BamHI and XhoI cutting site respectively. The fragment was directly inserted into expression plasmid pET-28a(+) between BamHI and XhoI sites. The recombinant protein had full length of original protein and a His tag, a thrombin site and a T7 tag at N-terminus. The coding sequence of recombinant protein was confirmed by Sanger sequencing using 8 primers to cover the entire coding regions.
The plasmid was transferred into BL21 (DE3) competent E. coli cells. The positive colonies were inoculated into 1 L LB medium and incubated at 37° C. with 200 rpm rotation to reach OD600=0.6. The inducer IPTG 1 mM was then added to induce the expression for 18 hours at 16° C. The cells were harvested and suspended in lysis buffer (25 mM Tris-HCl pH=7.5, 0.15 M NaCl, 20 mM imidazole, 2 mM β-mecaptoethanol and 1×Roche proteinase inhibitor cocktail). The cells were lyzed by sonication, and the debris was spun down at 50000 g for 1 hour.
The protein was isolated first by passing through the lysate through Ni column. The column was washed with 50 column volume (CV) binding buffer (lysis buffer without proteinase inhibitor) and then 10 CVs of washing buffer (binding buffer with total 40 mM imidazole). The protein was eluted out with elusion buffer (binding buffer with total 300 mM imidazole).
The crude extract was then further purified by size exclusion chromatography using a Superdex 200 increase 10/300 column with 25 mM Tris-HCl pH 7.5, 0.15 M NaCl, 5% Glycerol and 1 mM DTT. The final product was stored as 50-100 μL aliquots at −80° C.
The compounds were dissolved in DMSO to 1 mg/ml (or 10 mg/ml) as compound working solution. On the day of the test, […] of DMSO was added into well A, and 100 μL of DMSO was added into wells B through well H in a round bottom 96 well plate (Corning-3788). An aliquot of 20 μL compound working solution was added into well A and mixed by pipetting. From well A, […] solution was transferred to well B and mixed by pipetting to make a 3 x dilution. The procedure was repeated for well B to well C, and so forth until well G. Well H contained DMSO only. This generated a serial of compound working solutions with concentrations at 100, 33.3, 11.1, 3.7, 1.2, 0.4, 0.14, and 0 μg/ml in pure DMSO. This was deemed the ‘mother plate’.
Using a 96-head pipette station (CyBio), 1 μL compound working solutions were transferred from the mother plate into an identical 96-well plate. This was the ‘testing plate’. The testing plate was kept at room temperature.
The enzyme (DNA polymerase IIIC) samples were taken out from −80° C. freezer. It was thawed and kept on ice. The enzyme was diluted to 0.025-0.06 U/μL with dilution buffer (25 mM Tris-HCl, pH=7.5, 0.15M NaCl, 5% Glycerol, 1 mM DTT). One unit of enzyme is defined as the amount of enzyme could incorporate 250 μmole of dTTP in 30 minutes in a standard assay (with the presence of all nucleotide as substrate, in contrast to “truncated assay” from which dGTP was omitted) in the same system. The diluted enzymes were added into a new 96-well plate (Corning-3788) 20 μL per well. This plate was kept on ice. […]

Ki, 53 to 1000 nM:
O=c1[nH]c(NCc2ccc(Cl)c(Cl)c2)nc2cnn(-c3ccccc3)c12 [Compound 212, 5-[(3,4-dichlorophenyl)methylamino]-1-phenyl-6H-pyrazolo[4,3-d]pyrimidin-7-one]
C=CCn1ncc2nc(NCc3ccc(Cl)c(Cl)c3)[nH]c(=O)c21 [Compound 56, 1-allyl-5-((3,4-dichlorobenzyl)amino)-1H-pyrazolo[4,3-d]pyrimidin-7(6H)-one]
CN(C)CCOCCn1ncc2nc(NCc3ccc(Cl)c(Cl)c3)[nH]c(=O)c21.Cl [Compound 211, 5-((3,4-dichlorobenzyl)amino)-1-(2-(2-(dimethylamino)ethoxy)ethyl)-1H-pyrazolo[4,3-d]pyrimidin-7(6H)-one hydrochloride]
O=c1[nH]c(NCc2ccc(Cl)c(Cl)c2)nc2cnn(C3CC3)c12 [Compound 213, 1-Cyclopropyl-5-((3,4-dichlorobenzyl)amino)-1H-pyrazolo[4,3-d]pyrimidin-7(6H)-one]
COC(=O)CCCCn1ncc2nc(NCc3ccc(Cl)c(Cl)c3)[nH]c(=O)c21 [Compound 218, methyl 5-[5-[(3,4-dichlorophenyl)methylamino]-7-oxo-6H-pyrazolo[4,3-d]pyrimidin-1-yl]pentanoate]
Cl.O=c1[nH]c(NCc2ccc(Cl)c(Cl)c2)nc2cnn(C3CCN(C4CCOCC4)CC3)c12 [Compound 242, 5-((3,4-dichlorobenzyl)amino)-1-(1-(tetrahydro-2H-pyran-4-yl)piperidin-4-yl)-1H-pyrazolo[4,3-d]pyrimidin-7(6H)-one hydrochloride]
Cl.Cl.O=c1[nH]c(NCc2ccc(Cl)c(Cl)c2)nc2cnn(CCOCCN3CCNCC3)c12 [Compound 167, 5-[(3,4-dichlorophenyl)methylamino]-1-[2-(2-piperazin-1-ylethoxy)ethyl]-6H-pyrazolo[4,3-d]pyrimidin-7-one]
O=C([C@@H](O)[C@H](O)CO)N1CCC(n2ncc3nc(NCc4ccc(Cl)c(Cl)c4)[nH]c(=O)c32)CC1 [Compound 276, 5-((3,4-dichlorobenzyl)amino)-1-(1-((2S,3R)-2,3,4-trihydroxybutanoyl)piperidin-4-yl)-1H-pyrazolo[4,3-d]pyrimidin-7(6H)-one]
O=c1[nH]c(NCc2ccc(Cl)c(Cl)c2)nc2cn[nH]c12 [Compound 77, 5-((3,4-dichlorobenzyl)amino)-1H-pyrazolo[4,3-d]pyrimidin-7(6H)-one]
COCCn1ncc2nc(NCc3ccc(Cl)c(Cl)c3)[nH]c(=O)c21 [Compound 126, 5-((3,4-dichlorobenzyl)amino)-1-(2-methoxyethyl)-1H-pyrazolo[4,3-d]pyrimidin-7(6H)-one]
Cn1ncc2nc(NCc3ccc(Cl)c(Cl)c3)[nH]c(=O)c21 [Compound 2, 5-((3,4-Dichlorobenzyl)amino)-1-methyl-1H-pyrazolo[4,3-d]pyrimidin-7(6H)-one]
O=C(O)CCC(=O)N1CCC(n2ncc3nc(NCc4ccc(Cl)c(Cl)c4)[nH]c(=O)c32)CC1 [Compound 273, 4-(4-(5-((3,4-dichlorobenzyl)amino)-7-oxo-6,7-dihydro-1H-pyrazolo[4,3-d]pyrimidin-1-yl)piperidin-1-yl)-4-oxobutanoic Acid]
Cc1nn(C)c2c(=O)[nH]c(NCc3ccc(Cl)c(Cl)c3)nc12 [Compound 44, 5-((3,4-dichlorobenzyl)amino)-1,3-dimethyl-1H-pyrazolo[4,3-d]pyrimidin-7(6H)-one]
O=c1[nH]c(NCc2ccc(Cl)c(Cl)c2)nc2cnn(C3CCCC3)c12 [Compound 214, 1-cyclopentyl-5-((3,4-dichlorobenzyl)amino)-1H-pyrazolo[4,3-d]pyrimidin-7(6H)-one]
Cl.O=c1[nH]c(NCc2ccc(Cl)c(Cl)c2)nc2cnn(CC3CNCCO3)c12 (stereo not drawn) [Compound 149, 5-((3,4-dichlorobenzyl)amino)-1-(morpholin-2-ylmethyl)-1H-pyrazolo[4,3-d]pyrimidin-7(6H)-one hydrochloride]
